“And” between values parts separate entries of the source, which are not always exact repeats. Equal values may be shown once.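 Five compound concentrations were applied to cells in 96-well plates for 48 hours; endpoints were derived by simple linear interpolation of the resulting dose-response curve. GI50 is the concentration that inhibits growth by half. Definition used: TGI = concentration required for complete inhibition of growth.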
Legend:
Assay in all cases: NCI tumour cell line growth inhibition, 48 h
MDA-N = tested on: MDA-N
DLD-1 colon = tested on: DLD-1 colon
DMS 273 small cell lung = tested on: DMS 273 small cell lung
HOP-18 NSCLC = tested on: HOP-18 NSCLC
KM20L2 colon = tested on: KM20L2 colon
LXFL 529 NSCLC = tested on: LXFL 529 NSCLC
RXF-631 renal = tested on: RXF-631 renal
SNB-78 CNS = tested on: SNB-78 CNS
XF 498 CNS = tested on: XF 498 CNS
P388 leukemia = tested on: P388 leukemia
P388/ADR leukemia = tested on: P388/ADR leukemia
SN12K1 renal = tested on: SN12K1 renal

Compound	TGI (MDA-N)	TGI (DLD-1 colon)	TGI (DMS 273 small cell lung) [µM]	TGI (HOP-18 NSCLC) [µM]	TGI (KM20L2 colon)	TGI (LXFL 529 NSCLC) [µM]	TGI (SNB-78 CNS) [µM]	TGI (XF 498 CNS) [µM]	other results
O=C1NC(=O)C2(CCC(O)C2)c2cc[n+]([O-])cc21 (stereo unspecified)	> 100 µM	–	–	–	–	–	–	–	–
O=C(N/C(=C\c1ccc(Br)cc1)c1nc2ccccc2s1)c1ccccc1	–	> 100 µM	> 100	> 100	> 100 µM	> 100	> 100	> 100	TGI (RXF-631 renal): > 100 µM
CC[C@@H](C)[C@H]([C@H](CC(=O)N1CCC[C@@H]1[C@@H](OC)[C@H](C)C(=O)N[C@H](Cc1ccccc1)c1nccs1)OC)N(C)C(=O)[C@H](NC(=O)[C@@H](C(C)C)N(C)C)C(C)C	–	–	–	–	0.000234 µM	–	–	–	TGI (P388 leukemia): 0.581 µM; TGI (P388/ADR leukemia): 0.000573 µM; TGI (RXF-631 renal): 0.00731 µM
COc1ccc2[nH]c(-c3cccc(N(C)C)c3)cc(=O)c2c1	0.156 µM	–	–	–	–	–	–	–	–
CN(C)c1nc(N(C)C)n2nc(-c3ccccc3[N+](=O)[O-])nc2n1	–	> 100 µM	> 100	> 100	> 100 µM	> 100	> 100	> 100	–
CC1CCCN(CC(O)CN2CCCc3ccccc32)C1 (stereo unspecified)	> 100 µM	–	–	–	–	–	–	–	–
C=C1C(=O)O[C@H]2[C@H]1[C@H](OC(=O)/C(C)=C\C)C[C@]1(CO1)[C@@H]1[C@H](OC(C)=O)C=C(C)[C@]21O	34.8 µM	–	–	–	–	–	–	–	–
CCc1ccc(/C(C)=N/NC(N)=S)cc1	–	–	–	> 100	> 100 µM	–	> 100	82.6	–
NC1=NC2(O)c3ccccc3C(=O)C2(O)N1 (stereo unspecified)	–	> 100 µM	> 100	> 100	> 100 µM	> 100	> 100	–	TGI (RXF-631 renal): > 100 µM
O=C(CCc1ccccc1)On1nnc2ccccc2c1=O	–	> 100 µM	> 100	–	> 100 µM	> 100	> 100	–	–
O=C(CCCNC(=O)OCc1ccccc1)OCc1ccc2c(c1)C(=O)c1ccccc1C2=O	–	> 100 µM	> 100	–	> 100 µM	> 100	> 94.3	–	TGI (RXF-631 renal): > 100 µM
COc1ccc(CCNCc2cccc(OC)c2OC)cc1OC	–	> 100 µM	> 100	–	> 100 µM	> 100	> 100	> 100	TGI (RXF-631 renal): > 100 µM
CC1CCC2C(C)C3C(CC4C5CC=C6CC(OC7OC(CO)C(O)C(OC8OC(CO)C(O)C(O)C8O)C7OC7OC(C)C(O)C(O)C7O)CCC6(C)C5CCC43C)N2C1 (stereo unspecified)	23.7 µM and > 2.5 µg/mL	–	–	–	–	–	–	–	GI50 (MDA-N): > 2.5 µg/mL
COc1ccc(/C(Cl)=C(\C=O)c2ccc(OC)c(OC)c2)cc1OC	> 100 µM	> 100 µM	> 100	> 100	> 100 µM	–	> 100	> 100	TGI (P388 leukemia): > 100 µM; TGI (P388/ADR leukemia): > 85.8 µM; TGI (SN12K1 renal): > 100 µM
O=C1C=CN(C2OC(CO)C(O)C2O)C(=O)C1 (stereo unspecified)	> 2500 µM	625 µM and > 2500 µM	> 2500	> 2500	625 µM and > 1160 µM	–	–	1940	GI50 (DLD-1 colon): 21.5 µM; GI50 (DMS 273 small cell lung): > 625 µM; GI50 (HOP-18 NSCLC): > 625 µM; GI50 (KM20L2 colon): 19.9 µM; TGI (P388 leukemia): 52.5 µM; TGI (P388/ADR leukemia): > 992 µM; GI50 (SN12K1 renal): 24.7 µM and 14.4 µM; TGI (SN12K1 renal): 625 µM and > 810 µM; GI50 (XF 498 CNS): 409 µM
COc1ccc(/C=C/c2nc(=S)[nH][nH]2)cc1	–	> 100 µM	> 100	–	> 100 µM	> 100	> 100	> 100	TGI (RXF-631 renal): > 100 µM
CC(=O)NCCCCCCNC(C)=O	> 10000 µM	> 10000 µM	7250	> 10000	> 10000 µM	–	> 10000	8380	TGI (P388 leukemia): > 10000 µM; TGI (P388/ADR leukemia): > 10000 µM; TGI (SN12K1 renal): > 10000 µM
O=C(N=Nc1c(O)[nH]c2c(Cl)cc(Cl)cc12)c1ccncc1	29.1 µM	–	–	–	–	–	–	–	–
Cc1cccc2c1Oc1cc(Cl)ccc1C2NC(=O)CN(C)C (stereo unspecified)	–	> 100 µM	> 100	–	41.2 µM	> 100	> 100	–	–

Compound	TGI (MDA-N)	TGI (DLD-1 colon)	TGI (DMS 273 small cell lung) [µM]	TGI (HOP-18 NSCLC) [µM]	TGI (KM20L2 colon)	TGI (LXFL 529 NSCLC) [µM]	TGI (SNB-78 CNS) [µM]	TGI (XF 498 CNS) [µM]	other results
CCc1ccccc1-n1c2nc(=O)n(C)c(=O)c-2nc2ccccc21	–	45.2 µM	22.1	25	–	24.8	38.5	22	–
O=C(O)C(Br)C(Br)c1ccccc1[N+](=O)[O-] (stereo unspecified)	> 100 µM	–	–	–	–	–	–	–	–
COC1(OC)CC2C(=O)N(Cc3ccccc3)C1CC2S(=O)(=O)c1ccccc1 (stereo unspecified)	–	> 100 µM	> 100	> 100	–	–	–	98.7	–
CCOC(=O)C1=C(NC(C)(C)C)OCC1=O	–	> 100 µM	–	–	> 100 µM	> 100	> 100	> 100	TGI (RXF-631 renal): > 100 µM
NS(=O)(=O)c1ccc(NC(=O)CC(=O)Nc2ccc(S(N)(=O)=O)cc2)cc1	–	> 100 µM	> 100	> 100	> 100 µM	> 100	> 100	–	–
CCCCSCc1nc2nc(Cl)c(Cl)nc2[nH]1	65.9 µM	–	–	–	–	–	–	–	–
C[C@H]1COC2(c3ccccc3)CCC(=O)N12 (stereo partly specified)	–	> 100 µM	> 100	> 100	> 100 µM	–	> 100	> 100	–
COC(=O)C1=C(c2cc(OC)c(OC)c(OC)c2)OC(c2cc(OC)c(OC)c(OC)c2)C1COC(C)=O (stereo unspecified)	–	> 100 µM	> 100	–	> 100 µM	> 100	> 100	> 100	TGI (RXF-631 renal): 45.1 µM
O=C(/C=C/c1c(O)ccc2ccccc12)c1cccc2ccccc12	–	> 100 µM	> 100	> 100	> 100 µM	> 100	> 100	> 100	–
Cc1[nH]c(=O)nc(CC(O)(c2ccccc2)c2ccccc2)c1-c1ccccc1	–	> 100 µM	> 100	> 100	> 100 µM	> 100	> 100	–	TGI (RXF-631 renal): > 100 µM
O=C(O)c1ccc(S(=O)(=O)N=Nc2c(O)[nH]c3ccccc23)cc1	> 100 µM	–	–	–	–	–	–	–	–
COc1cccc2c1cc([N+](=O)[O-])c1c(C(=O)O)cc3c(c12)OCO3	> 100 µM	–	–	–	–	–	–	–	–
Cc1c(C2Cc3ccccc3N2C(=O)/C=C\C(=O)O)c2ccccc2n1C (stereo unspecified)	–	> 100 µM	> 100	–	58.3 µM	34.8	> 100	31.5	TGI (RXF-631 renal): > 100 µM
O=C1OC(c2ccccc2)=N/C1=C\c1c(O)cc(O)cc1O	–	–	> 100	> 100	> 100 µM	> 100	> 100	–	–
O=C(CCC(=O)N/N=C/c1ccccc1O)N/N=C/c1ccccc1O	–	–	> 100	–	> 100 µM	> 100	> 100	–	–
CS(=O)(=O)OCCN(CCOS(C)(=O)=O)c1ccc(C=Nc2ccc3oc(=O)ccc3c2)cc1	35.8 µM	–	–	–	> 100 µM	36.4	12.5	–	–
CN(/N=C/c1ccnc2ccccc12)c1ccc([N+](=O)[O-])cc1[N+](=O)[O-]	–	> 100 µM	> 100	> 100	> 100 µM	> 100	> 100	> 100	–
CC1=Nc2c([nH]c(=S)[nH]c2=O)NC(c2ccc(Cl)c(Cl)c2)C1 (stereo unspecified)	–	> 56.7 µM	> 72.9	> 100	> 62.9 µM	37.8	> 100	> 100	–
N#CCC(=O)N/N=C1/C(=O)NC(=O)C(=O)C1c1nc2ccccc2s1 (stereo unspecified)	–	> 100 µM	> 100	> 100	> 100 µM	> 100	> 100	–	TGI (RXF-631 renal): > 100 µM
